Results on 25 compounds are retold here after US20110071124A1, “Compounds that Inhibit Production of sAPPB and AB and Uses Thereof” (The Trustees of Columbia University in the City of New York, priority 2008, published 2011).

The test system of this test is sAPPβ (BACE1 cleavage of SEAP-APPwt) in SY5Y-BACEGFP-SEAPAPPwt cells. Nature of the test: cell-based BACE1 assay (sAPPβ modified ELISA). As to conditions: for IC50(sAPPβ) / IC50: SAR study, 8 concentrations (30-0.01 μM), SY5Y-BACEGFP-SEAPAPPwt cells; for IC50: read-out: IC50(sAPPβ). The method, then:
FIG. 1. An sAPPβ assay utilized to identify inhibitors of BACE1. The assay utilizes SY5Y cells stably overexpressing BACE-GFP and SEAP-APPwt. Cells are incubated with a candidate compound for 6 hours prior to harvesting media. BACE1-mediated cleavage of APP results in the release of sAPPβ into the media. α-secretase, a competing enzyme that is non-amyloidogenic, also cleaves APP to release […]. Using an sAPPβ-specific antibody (sβwt), SEAP-sAPPβ is specifically captured in a modified ELISA assay. Detection is achieved by addition of the fluorescent alkaline phosphatase substrate, 4-methylumbelliferyl phosphate (4-MUP).
FIG. 13. […] Compounds were tested in SY5Y-BACEGFP-SEAPAPPwt cells using the cell-based BACE1 assay. Select compounds were also investigated for Aβ-lowering effect using a commercial Aβ ELISA kit (BioSource). All compounds were tested at 8 concentrations (30, 10, 3, 1, 0.3, 0.1, 0.03, and 0.01 μM), and data points were analyzed with Origin software and fitted using a logistic model for IC50 determination.
As described in the Examples below, and depicted in FIG. 1, an sAPPβ ELISA assay may comprise cells, for example, SY5Y cells, transfected with a BACE1 reporter construct, such as a GFP-tagged BACE1 (BACE-GFP), and a wild type APP reporter construct, such as a secreted alkaline phosphatase (SEAP)-tagged wild type APP (SEAP-APPwt). BACE1 cleavage of the reporter-tagged APP (e.g. SEAP-APPwt) may result in secretion into the media of SEAP-tagged sAPPβ, which may be collected and specifically captured using an sAPPβ cleavage site-specific antibody (e.g. stβwt). Following washing, a substrate may be used, for example, the fluorescent alkaline phosphatase substrate 4-methylumbelliferyl phosphate (4-MUP), to detect the captured SEAP-sAPPβ.
A cell-based modified ELISA assay for measuring sAPPβ, the secreted ectodomain of β-amyloid precursor protein (APP) following β-secretase (BACE1) cleavage, was used to identify a class of compounds that interfered with the first step of sAPPβ generation. This assay has been described in International Application PCT/US2007/015938 (Published as International Publication No. WO 08/008463), which is herein incorporated in its entirety for all purposes.
The SY5Y-BACEGFP-SEAPAPPwt cell based assay was developed to discover novel small molecule modulators of BACE1 activity. SY5Y cells were stably transfected with GFP-tagged BACE1 (BACE-GFP) and secreted alkaline phosphatase (SEAP)-tagged wildtype APP (SEAP-APPwt). BACE1 cleavage of SEAP-APPwt results in secretion into the media of SEAP-tagged sAPPβ, which is collected and specifically captured using an sAPP0 cleavage site-specific antibody (sβwt). After washing, the fluorescent alkaline phosphatase substrate 4-methylumbelliferyl phosphate (4-MUP) is used to detect the captured SEAP-sAPPβ (FIG. 1).
The 15 LDDN compounds selected based on their 3-point dose-response profile were tested at 12 concentrations (ranging from 0.1 nM to 30 μM) in the cell-based BACE1 assay. The assay was conducted in 96-well format to maximize the Z′ factor. Compounds were characterized in duplicate cell plates, each containing 12 doses of compound in triplicate. Cell viability was measured at 6 and 24 hours using Promega's Cell Titer-Glo kit according to the manufacturer's protocol. The dose-response curves for sAPPβ reduction were plotted using Origin software and fitted using a logistic model for IC50 determination.
27 structural analogs of LDN-0057228 were synthesized and tested using the cell-based BACE1 assay in SY5Y-BACEGFP-SEAPAPPwt cells (FIG. 13). 4 analogs, in addition to the parent compound, were also assessed for Aβ40 lowering activity using a commercial Aβ kit (BioSource). Because LDN-0057228 resembles CNS monoamine transporter inhibitors, this analog series was given the designation “CNS.” LDN-0057228 gave an unexpectedly low potency (IC50˜20 μM for both sAPPβ and Aβ40 reduction) compared to the ˜7 μM potency obtained using the same compound in FIG. 8.

A value given as a limit tells only on which side of the number the result lay.

Consider `NC(=O)[C@@H]1CCCCN1CCOC(c1ccc(F)cc1)c1ccc(F)cc1` [CNS-15], for which the “IC50(sAPPβ)” value was “inactive”.
Consider `Fc1ccc(C(OCCN2CCC[C@H]2CNCCCc2ccccc2)c2ccc(F)cc2)cc1` [CNS-1], for which the IC50 is 10.5 µM.
Take `O=C(CCc1ccccc1)NCCNCCOC(c1ccc(F)cc1)c1ccc(F)cc1` [CNS-21]: the “IC50(sAPPβ)” value is “inactive”.
Regarding `NC[C@@H]1CCCCN1CCOC(c1ccc(F)cc1)c1ccc(F)cc1` [CNS-12], the half-inhibitory concentration (IC50) was more than 50 µM.
Same read-out and setting: the same measure for `COC(=O)NC[C@@H]1CCCN1CCOC(c1ccc(F)cc1)c1ccc(F)cc1` [CNS-4]: 23.3 µM; for `Fc1ccc(C(OCCN2CCC[C@@H]2CNCCCc2ccccc2)c2ccc(F)cc2)cc1` [CNS-8]: 5.7 µM.
On to `NC(=O)[C@@H]1CCCN1CCOC(c1ccc(F)cc1)c1ccc(F)cc1` [CNS-16], for which the “IC50(sAPPβ)” value was “inactive”.
`NC[C@@H]1CCCN1C(c1ccc(F)cc1)c1ccc(F)cc1` [CNS-25]: the half-inhibitory concentration (IC50) stood at 31.4 µM.
On to `NC[C@H]1CCCN1CCOC(c1ccc(F)cc1)c1ccc(F)cc1` [CNS-10], for which the concentration for half-maximal inhibition (IC50) was determined as 38.3 µM.
In the case of `Fc1ccc(C(OCCN2CCCC[C@H]2CNCCCc2ccccc2)c2ccc(F)cc2)cc1` [CNS-13], the half-inhibitory concentration (IC50) worked out at 9 µM.
In the case of `Fc1ccc(C(c2ccc(F)cc2)N2CCC[C@H]2CNCCCc2ccccc2)cc1` [CNS-27], the IC50 came out at 10.2 µM.
On the same count and under the same terms, the result for `O=C(CCc1ccccc1)NC[C@H]1CCCN1CCOC(c1ccc(F)cc1)c1ccc(F)cc1` [CNS-9] reads 20.4 µM.
Same read-out and setting: the same measure for `O=C(CCc1ccccc1)NC[C@@H]1CCCN1C(c1ccc(F)cc1)c1ccc(F)cc1` [CNS-26]: 32.1 µM; for `CC(=O)NC[C@@H]1CCCN1CCOC(c1ccc(F)cc1)c1ccc(F)cc1` [CNS-5]: 20.8 µM.
`NC(=O)[C@@H]1CCN1CCOC(c1ccc(F)cc1)c1ccc(F)cc1` [CNS-17]: the “IC50(sAPPβ)” value was “inactive”.
Take `Fc1ccc(C(OCCN2CC[C@H]2CNCCCc2ccccc2)c2ccc(F)cc2)cc1` [CNS-20]: the “IC50(sAPPβ)” value is “inactive”.
Turning to `NC[C@@H]1CCN1CCOC(c1ccc(F)cc1)c1ccc(F)cc1` [CNS-18], the half-inhibitory concentration (IC50) was more than 50 µM.
Consider `O=C(CCc1ccccc1)NCCN(CCOC(c1ccc(F)cc1)c1ccc(F)cc1)CCOC(c1ccc(F)cc1)c1ccc(F)cc1` [CNS-23], for which the “IC50(sAPPβ)” value was “inactive”.
On to BACE inhibitor IV [reference compound], for which the “suppression of sAPPβ generation” value (10 μM, positive control, 384-well LDDN screen, on average) is on record as more than 95%.
Take `O=C(CCc1ccccc1)NC[C@@H]1CCCCN1CCOC(c1ccc(F)cc1)c1ccc(F)cc1` [CNS-14]: the IC50 came to 14 µM.
For the compound `Fc1ccc(C(OCCNCCNCCCc2ccccc2)c2ccc(F)cc2)cc1` [CNS-22], the “IC50(sAPPβ)” value is “inactive”.
On the same count and under the same terms, the same measure for `O=C(CCc1ccccc1)NC[C@@H]1CCN1CCOC(c1ccc(F)cc1)c1ccc(F)cc1` [CNS-19]: “inactive”.
For the compound `NC[C@@H]1CCCN1CCOC(c1ccc(F)cc1)c1ccc(F)cc1` [CNS-6], the half-maximal inhibitory concentration (IC50) was determined as 27.9 µM.
Take `NC(=O)[C@@H]1CCCN1C(c1ccc(F)cc1)c1ccc(F)cc1` [CNS-24]: the “IC50(sAPPβ)” value is “inactive”.
In the case of `NC(=O)[C@H]1CCCN1CCOC(c1ccc(F)cc1)c1ccc(F)cc1` [CNS-11], the “IC50(sAPPβ)” value is “inactive”.

The IC50 is the concentration that inhibits the measured activity by half.
